Data on 4 compounds can be found in patent publication US12686678B2, “Crystal form of Lanifibranor, preparation method therefor, and use thereof” (INVENTIVA, priority 2020, dated 2026).

Structures are written as SMILES.

Format in all cases: physicochemical
A short description of data set [1]: Hygroscopicity by dynamic vapor sorption (DVS). Particulars: for Weight gain from 0 to 60% RH / Weight gain from 0 to 70% RH: DVS, 25° C.; for Crystalline state after DVS: XRPD before and after DVS test. On the procedure:
Dynamic Vapor Sorption (DVS) was measured via an SMS (Surface Measurement Systems Ltd.) intrinsic DVS instrument. The instrument control software is DVS-Intrinsic control software. Typical Parameters for DVS test are as follows: • Temperature: 25° C. • Gas and flow rate: N2, 200 mL/min • RH range: 0% RH to 95% RH Dynamic vapor sorption (DVS) analyzer was applied to evaluate the hygroscopicity of amorphous with a certain amount of sample. The weight gains at each relative humidity were recorded in a cycle of 0-95% RH-0. […] Dynamic vapor sorption (DVS) analyzer was applied to evaluate hygroscopicity of Form CSI with a certain amount of sample. The weight gains at each relative humidity were recorded in a cycle of 0-95% RH-0. Dynamic vapor sorption (DVS) analyzer was applied to evaluate hygroscopicity of Form CSII with a certain amount of sample. The weight gains at each relative humidity were recorded in a cycle of 50% RH-95% RH-0%-95% RH. Dynamic vapor sorption (DVS) analyzer was applied to evaluate hygroscopicity of Form CSIV and prior art amorphous with certain amounts of samples. The weight gains at each relative humidity were recorded in a cycle of 0-95% RH-0.

Data set [2] in a line: Appearance of powder on sulphuric acid paper. An excerpt:
A certain amount of Form CSI was weighed and put on sulphuric acid paper to observe the appearance The appearance of Form CSI is shown in FIG. 15. […] A certain amount of Form CSII was weighed and put in sulphuric acid paper, and the powder state was observed. […] A certain amount of Form CSIV was weighed and put in sulphuric acid paper, and the powder state was observed.

The nature of data set [3]: Physical stability upon manual grinding (XRPD). Conditions: ground manually for 5 minutes in a mortar. On the procedure:
Form CSII was grounded manually for 5 minutes in a mortar. […] Form CSIV was grounded manually for 5 minutes in a mortar.

The nature of data set [4]: Physical stability upon tableting under different pressures (XRPD). An excerpt:
A certain amount of Form CSII was compressed into tablet under different pressures with suitable tableting die. Crystalline form before and after tableting were checked by XRPD. […] A certain amount of Form CSIV was compressed into tablet under different pressures with suitable tableting die. Crystalline form before and after tableting were checked by XRPD.

A short description of data set [5]: Physical and chemical stability on storage (XRPD for crystalline form, HPLC for purity). On the procedure:
A certain amount of Form CSI of the present disclosure was stored under different conditions of 25° C./60% RH, 40° C./75% RH, and 60° C./75% RH. Crystalline form and chemical purity were checked by XRPD and HPLC, respectively. Open packaged: Put the sample into a glass vial, cover the vial with aluminum toil, and punch 5-10 holes in the foil. Sealed packaged: Put the sample into a glass vial, cap the vial tightly, and seal the vial in an aluminum foil bag. A certain amount of Form CSII of the present disclosure was stored under different conditions of 25° C./60% RH, 40° C./75% RH, and 60° C./75% RH. Crystalline form and chemical purity were checked by XRPD and HPLC, respectively. A certain amount of Form CSIV of the present disclosure was stored under different conditions of 25° C./60% RH, 40° C./75% RH, and 60° C./75% RH. Crystalline form and chemical purity were checked by XRPD and HPLC, respectively.

A short description of data set [6]: Adhesiveness (material sticking to punch, ENERPAC manual tablet press). Particulars: about 30 mg, φ8 mm round tooling, 10 kN, held 30 s. How it is done: ENERPAC manual tablet press was used for testing. Approximately 30 mg of Form CSI was weighed and then added into the dies of φ8 mm round tooling, compressed at 10 kN and held for 30 s. The punch was weighed and the amount of material sticking to the punch was calculated. The compression was repeated twice and the maximum amount and average amount of material sticking to the punch during the compression were recorded. […] ENERPAC manual tablet press was used for testing. Approximately 30 mg of Form CSII was weighed and then added into the dies of φ8 mm round tooling, compressed at 10 kN and held for 30 s. The punch was weighed and amount of material sticking to the punch was calculated. The compression was repeated twice and the maximum amount and average amount of material sticking to the punch during the compression were recorded. […] ENERPAC manual tablet press was used for testing. Approximately 30 mg of Form CSIV was weighed and then added into the dies of φ8 mm round tooling, compressed at 10 KN and held for 30 s. The punch was weighed and amount of material sticking to the punch was calculated. The compression was repeated twice and the maximum amount and average amount of material sticking to the punch during the compression were recorded.

A short description of data set [7]: Flowability (compressibility index from bulk and tapped density). How it is done:
Compressibility index is usually utilized to evaluate the flowability of powder or granules during the drug product process. Compressibility index test method is as follows: a certain amount of powder was added into a measuring cylinder and bulk volume was recorded. Then the powder was tapped to make it in the tightest state and the tapped volume was recorded. The bulk density (ρ0) and tapped density (ρf) were calculated and compressibility index was calculated according to c=(ρf−ρ0)/ρf.

Data set [8] is described as follows: Particle size distribution (Mastersizer 3000, wet mode). Conditions: after 30 seconds of ultrasonication, Isopar G. How it is done:
The particle size distribution data in the present disclosure were acquired by an Mastersizer 3000 laser particle size analyzer of Malvern. The test was carried out in wet mode, using a Hydro MV dispersion device, and the dispersant was Isopar G. The parameters are shown in Table 3. A certain amount of Form CSI was added into a glass vial with about a certain volume of Isopar G (containing 0.2% lecithin). The mixture was mixed thoroughly and transferred into the Hydro MV dispersing device. The experiment was started when the obscuration was in appropriate range. The particle size distribution was tested after 30 seconds of ultrasonication.

Where [9] appears, read: 25° C./60% RH, open packaged, 3 months.
The mark [10] stands for this setting: 25° C./60% RH, sealed packaged, 3 months.
Setting [11] is: 40° C./75% RH, open packaged, 3 months.
Setting [12] is: 40° C./75% RH, sealed packaged, 3 months.
[13] abbreviates: 60° C./75% RH, open packaged, one month.
The mark [14] stands for this setting: 60° C./75% RH, sealed packaged, one month.
Setting [15] is: 25° C./60% RH, open packaged, 6 months.
Setting [16] is: 25° C./60% RH, sealed packaged, 6 months.
Where [17] appears, read: 40° C./75% RH, open packaged, 6 months.
Where [18] appears, read: 40° C./75% RH, sealed packaged, 6 months.
[19] abbreviates: 60° C./75% RH, open packaged, 3 months.
Where [20] appears, read: 60° C./75% RH, sealed packaged, 3 months.

On to `O=C(O)CCCc1cc2cc(Cl)ccc2n1S(=O)(=O)c1ccc2ncsc2c1` [amorphous, 5-Chloro-1-[(6-benzothiazolyl)sulfonyl]-1H-indole-2-butanoic acid, reference compound], for which, in data set [1] (0 to 60% RH), the “Weight gain of amorphous relative to that of Form CSI” value is on record as “about 6 times”, the “Weight gain of amorphous relative to that of Form CSII” value is on record as “about 4 times” and the “Weight gain from 0 to 60% RH” value is listed as 0.94%. For the same compound, the “Weight gain of amorphous relative to that of Form CSIV” value in data set [1] (0 to 60% RH and 0 to 70% RH) is given as “about 4 times”. For the same compound, in data set [1] (0 to 70% RH), the “Weight gain of amorphous relative to that of Form CSI” value is approximately 7 times, the “Weight gain of amorphous relative to that of Form CSII” value is listed as approximately 5 times and the “Weight gain from 0 to 70% RH” value is 1.18%. Moreover, in data set [1] (0 to 60% RH, listed as prior art amorphous), the “Weight gain from 0 to 60% RH” value was determined as 0.94%. Moreover, the “Weight gain from 0 to 70% RH” value in data set [1] (0 to 70% RH, listed as prior art amorphous) came out at 1.18%.

With `O=C(O)CCCc1cc2cc(Cl)ccc2n1S(=O)(=O)c1ccc2ncsc2c1` [Form CSIV, 5-Chloro-1-[(6-benzothiazolyl)sulfonyl]-1H-indole-2-butanoic acid], the Appearance of powder result in data set [2] is “powdery with uniformly dispersed and has no adhesion phenomenon”. For the same compound, in data set [3], the “Crystalline state after grinding” value is recorded as “remains unchanged”. Also, the “Solid form after tableting” value in data set [4] (Pressure 5 kN), in data set [4] (Pressure 10 kN) and in data set [4] (Pressure 20 kN) was “Form CSIV” in each case. Further, in data set [1] (0 to 60% RH), the “Weight gain from 0 to 60% RH” value is 0.23%. Further, the “Weight gain from 0 to 70% RH” value in data set [1] (0 to 70% RH) came to 0.27%. Further, in data set [1], the “Crystalline state after DVS” value was “remains unchanged”. Moreover, the results for the “Time for which the form is stable (crystalline state doesn't change)” value (“Time … (crystalline state doesn't change)” below) in data set [5] (25° C./60% RH), in data set [5] (40° C./75% RH) and in data set [5] (60° C./75% RH) were “at least 3 months”, “at least 3 months” and “at least one month”, respectively. Besides, the Form after storage result in data set [5] (setting [9]), in data set [5] (setting [10]), in data set [5] (setting [11]), in data set [5] (setting [12]), in data set [5] (setting [13]) and in data set [5] (setting [14]) was “Form CSIV” throughout. Further, the Purity change in data set [5] (setting [9]) was determined as 0.02%; in data set [5] (setting [10]), 0.04%; in data set [5] (setting [11]), 0.00%; in data set [5] (setting [12]) it was 0.03%; in data set [5] (setting [13]), 0.04%; in data set [5] (setting [14]), 0.06%. For the same compound, the Average adhesion amount in data set [6] amounted to 0.05 mg.

`O=C(O)CCCc1cc2cc(Cl)ccc2n1S(=O)(=O)c1ccc2ncsc2c1` [Form CSI, 5-Chloro-1-[(6-benzothiazolyl)sulfonyl]-1H-indole-2-butanoic acid]: in data set [2], the Appearance of powder entry is “powdery with uniformly dispersed and has no adhesion phenomenon”. Besides, the Bulk density in data set [7] was determined as 0.405 g/mL. The compound also returned a Tapped density in data set [7] of 0.526 g/mL. In data set [7] (class by compressibility index, ICH Q4B Annex 13), the Flowability result is “Passable (21-25)”. The compound further displayed a D10 in data set [8] of 0.725 μm. The D50 in data set [8] is 1.89 μm. This compound also gave a D90 in data set [8] of 7.15 μm. Further, the MV in data set [8] is reported as 4.54 μm. Moreover, the “Weight gain from 0 to 60% RH” value in data set [1] (0 to 60% RH) was determined as 0.17%. In addition, the “Weight gain from 0 to 70% RH” value in data set [1] (0 to 70% RH) was determined as 0.17%. Moreover, the “Crystalline state after DVS” value in data set [1] is recorded as “remains unchanged”. In addition, the “Time … (crystalline state doesn't change)” value is recorded as “at least 6 months” in data set [5] (25° C./60% RH), “at least 6 months” in data set [5] (40° C./75% RH) and “at least 3 months” in data set [5] (60° C./75% RH). Besides, the Form after storage result in data set [5] (setting [15]), in data set [5] (setting [16]), in data set [5] (setting [17]), in data set [5] (setting [18]), in data set [5] (setting [19]) and in data set [5] (setting [20]) was “Form CSI” each time. Besides, the Purity change in data set [5] (setting [15]) is on record as 0.02%; in data set [5] (setting [16]), 0.03%; in data set [5] (setting [17]), 0.05%; in data set [5] (setting [18]), 0.01%; in data set [5] (setting [19]) it was 0.08%; in data set [5] (setting [20]) it was 0.07%. For the same compound, the Average adhesion amount in data set [6] is reported as 0.45 mg.

Take `O=C(O)CCCc1cc2cc(Cl)ccc2n1S(=O)(=O)c1ccc2ncsc2c1` [Form CSII, 5-Chloro-1-[(6-benzothiazolyl)sulfonyl]-1H-indole-2-butanoic acid]: in data set [2], the Appearance of powder result was “powdery with uniformly dispersed and has no adhesion phenomenon”. For the same compound, in data set [3], the “Crystalline state after grinding” value is “remains unchanged”. Further, the “Solid form after tableting” value in data set [4] (Pressure 5 kN), in data set [4] (Pressure 10 kN) and in data set [4] (Pressure 20 kN) was “Form CSII” each time. The “Weight gain from 0 to 60% RH” value in data set [1] (0 to 60% RH) is reported as 0.21%. In data set [1] (0 to 70% RH), the “Weight gain from 0 to 70% RH” value was determined as 0.27%. In addition, in data set [1], the “Crystalline state after DVS” value is given as “remains unchanged”. Also, the figures for the “Time … (crystalline state doesn't change)” value in data set [5] (25° C./60% RH), in data set [5] (40° C./75% RH) and in data set [5] (60° C./75% RH) were “at least 3 months”, “at least 3 months” and “at least one month”, respectively. In addition, the Form after storage result in data set [5] (setting [9]), in data set [5] (setting [10]), in data set [5] (setting [11]), in data set [5] (setting [12]) and in data set [5] (setting [13]) was “Form CSII” each time. Besides, the Purity change stood at 0.09% in data set [5] (setting [9]); 0.06% in data set [5] (setting [10]); 0.07% in data set [5] (setting [11]); 0.01% in data set [5] (setting [12]); 0.05% in data set [5] (setting [13]). The Average adhesion amount in data set [6] is 0.20 mg.
